# Experimental data taken from US9856254B2, “Alkoxy substituted imidazoquinolines” (3M INNOVATIVE PROPERTIES COMPANY, priority 2003, dated 2018).
# Structures can show the parent of a compound that is named as a salt.
row,melting point,Compound
1,152.8 °C (dec.),"CCCCc1nc2c(N)nc3ccc(OCCC4CCN(C(=O)N5CCOCC5)CC4)cc3c2n1C [Example 42, 2-Butyl-1-methyl-8-{2-[1-(morpholin-4-ylcarbonyl)piperidin-4-yl]ethoxy}-1H-imidazo[4,5-c]quinolin-4-amine]"
2,160 to 162 °C,"CCCn1c(COC)nc2c(N)nc3ccc(OCCN4CCCCC4)cc3c21 [Example 559, 2-Methoxymethyl-8-(2-piperidin-1-ylethoxy)-1-propyl-1H-imidazo[4,5-c]quinolin-4-amine]"
3,177 to 179 °C,"CCCn1c(COCC)nc2c(N)nc3ccc(OC4CCN(C(=O)C(C)C)CC4)cc3c21 [Example 414, 2-(Ethoxymethyl)-8-[(1-isobutyrylpiperidin-4-yl)oxy]-1-propyl-1H-imidazo[4,5-c]quinolin-4-amine]"
4,158 to 159 °C,"CCOCc1nc2c(N)nc3cc(OC4CCN(C(=O)OC(C)(C)C)CC4)ccc3c2n1CC1COC(C)(C)O1 (stereo not drawn) [Example 374, tert-Butyl 4-{[4-amino-1-[(2,2-dimethyl-1,3-dioxolan-4-yl)methyl]-2-(ethoxymethyl)-1H-imidazo[4,5-c]quinolin-7-yl]oxy}piperidine-1-carboxylate]"
5,195.5 to 197 °C,"CCOCc1nc2c(N)nc3cc(OC4CCOC4)ccc3c2n1CCCCN1CCCS1(=O)=O (stereo not drawn) [Example 401, 1-[4-(1,1-Dioxidoisothiazolidin-2-yl)butyl]-2-(ethoxymethyl)-7-(tetrahydrofuran-3-yloxy)-1H-imidazo[4,5-c]quinolin-4-amine]"
6,134.5 to 136 °C,"CCOCc1nc2c(N)nc3cc(OCCCN4CCCC4=O)ccc3c2n1CCCCNC(=O)OC(C)(C)C [Example 397, tert-Butyl 4-{4-amino-2-(ethoxymethyl)-7-[3-(2-oxopyrrolidin-1-yl)propoxy]-1H-imidazo[4,5-c]quinolin-1-yl}butylcarbamate]"
7,196 to 197 °C,"CCCn1c(COCC)nc2c(N)nc3ccc(OCC(=O)N4CCOCC4)cc3c21 [Example 566, 2-(Ethoxymethyl)-8-(2-morpholin-4-yl-2-oxoethoxy)-1-propyl-1H-imidazo[4,5-c]quinolin-4-amine]"
8,173 to 174 °C,"CCCc1nc2c(N)nc3cc(OCCCN)ccc3c2n1CC(C)C [Example 8, 7-(3-Aminopropoxy)-1-(2-methylpropyl)-2-propyl-1H-imidazo[4,5-c]quinolin-4-amine]"
9,221 to 223 °C,"CCOCc1nc2c(N)nc3cc(OCCN)ccc3c2n1CC(O)CO (stereo not drawn) (as salt: hydrochloride) [Example 373, 3-[4-Amino-7-(2-aminoethoxy)-2-(ethoxymethyl)-1H-imidazo[4,5-c]quinolin-1-yl]propane-1,2-diol dihydrochloride]"
10,> 250 °C,"CCOCc1nc2c(N)nc3cc(OCCCN4CCCC4=O)ccc3c2n1CCCCN (as salt: hydrochloride) [Example 398, 1-(3-{[4-Amino-1-(4-aminobutyl)-2-(ethoxymethyl)-1H-imidazo[4,5-c]quinolin-7-yl]oxy}propyl)pyrrolidin-2-one dihydrochloride]"
11,213.7 to 215.7 °C,"Cc1nc2c(N)nc3cc(OCCC4CCN(C(=O)NC5CCCCC5)CC4)ccc3c2n1CC(C)C [Example 403, 4-{2-[(4-Amino-1-isobutyl-2-methyl-1H-imidazo[4,5-c]quinolin-7-yl)oxy]ethyl}-N-cyclohexylpiperidine-1-carboxamide]"
12,207 to 208.5 °C,"CCCn1c(CCOC)nc2c(N)nc3cc(OC4CCN(C(N)=O)CC4)ccc3c21 [Example 391, 4-{[4-Amino-2-(2-methoxyethyl)-1-propyl-1H-imidazo[4,5-c]quinolin-7-yl]oxy}piperidine-1-carboxamide]"
13,162.5 to 164 °C,"CCCc1nc2c(N)nc3cc(OCCCNC(=O)OC(C)(C)C)ccc3c2n1CC(C)C [Example 7, tert-Butyl 3-{[4-amino-1-(2-methylpropyl)-2-propyl-1H-imidazo[4,5-c]quinolin-7-yl]oxy}propylcarbamate]"
14,138 to 140 °C,"CCCc1nc2c(N)nc3cc(OCCCCCCNS(C)(=O)=O)ccc3c2n1CCCCNS(C)(=O)=O [Example 47, N-(4-{4-Amino-7-[6-(methanesulfonylamino)hexyloxy]-2-propyl-1H-imidazo[4,5-c]quinolin-1-yl}butyl)methanesulfonamide]"
15,201 to 204 °C,"CCCn1c(COC)nc2c(N)nc3ccc(OCC(=O)N4CCOCC4)cc3c21 [Example 557, 2-(Methoxymethyl)-8-(2-morpholin-4-yl-2-oxoethoxy)-1-propyl-1H-imidazo[4,5-c]quinolin-4-amine]"
16,162 to 164 °C,"CCOCc1nc2c(N)nc3cc(OC4CCN(C(C)=O)CC4)ccc3c2n1CC(C)(C)O [Example 656, 1-[7-[(1-Acetylpiperidin-4-yl)oxy]-4-amino-2-(ethoxymethyl)-1H-imidazo[4,5-c]quinolin-1-yl]-2-methylpropan-2-ol]"
17,165 to 166 °C,"CCCn1c(CCOC)nc2c(N)nc3cc(OC4CCN(C(=O)C(C)C)CC4)ccc3c21 [Example 389, 7-[(1-Isobutyrylpiperidin-4-yl)oxy]-2-(2-methoxyethyl)-1-propyl-1H-imidazo[4,5-c]quinolin-4-amine]"
18,215 to 217 °C,"CCCn1c(COCC)nc2c(N)nc3cc(OC4CCN(S(C)(=O)=O)CC4)ccc3c21 [Example 561, 2-(Ethoxymethyl)-7-{[1-(methylsulfonyl)piperidin-4-yl]oxy}-1-propyl-1H-imidazo[4,5-c]quinolin-4-amine]"
19,165 to 166.5 °C,"CCCn1c(CCOC)nc2c(N)nc3cc(OCCCN)ccc3c21 [Example 394, 7-(3-Aminopropoxy)-2-(2-methoxyethyl)-1-propyl-1H-imidazo[4,5-c]quinolin-4-amine]"
20,147.2 to 150.1 °C,"CCCCc1nc2c(N)nc3ccc(OCCC4CCN(C(=O)C5CCCC5)CC4)cc3c2n1C [Example 40, 2-Butyl-8-{2-[1-(cyclopentylcarbonyl)piperidin-4-yl]ethoxy}-1-methyl-1H-imidazo[4,5-c]quinolin-4-amine]"
21,168 to 172 °C,"CCCc1nc2c(N)nc3cc(OCCCCCCNC(C)=O)ccc3c2n1CCCCNS(C)(=O)=O [Example 48, N-(6-{4-Amino-1-[4-(methanesulfonylamino)butyl]-2-propyl-1H-imidazo[4,5-c]quinolin-7-yloxy}hexyl)acetamide]"
22,214 to 216 °C,"CCCn1c(COC)nc2c(N)nc3ccc(OCC(=O)N4CCSCC4)cc3c21 [Example 556, 2-(Methoxymethyl)-8-(2-oxo-2-thiomorpholin-4-ylethoxy)-1-propyl-1H-imidazo[4,5-c]quinolin-4-amine]"
23,190 to 192 °C,"CCOCc1nc2c(N)nc3cc(OCCCCCCNC(C)=O)ccc3c2n1CC(C)(C)NC(C)=O [Example 50, N-(2-{7-[6-(Acetylamino)hexyloxy]-4-amino-2-ethoxymethyl-1H-imidazo[4,5-c]quinolin-1-yl}-1,1-dimethylethyl)acetamide]"
24,126 °C (dec.),"CCCc1nc2c(N)nc3cc(OCC4CCCCO4)ccc3c2n1CC(C)C (stereo not drawn) [Example 54, 1-(2-Methylpropyl)-2-propyl-7-(tetrahydropyran-2-ylmethoxy)-1H-imidazo[4,5-c]quinolin-4-amine]"
